Test results: patent publication US11267811B2, “Small molecule inhibitors of galectin-3” (BRISTOL-MYERS SQUIBB COMPANY, priority 2017, dated 2022)

target: His-tagged recombinant human Gal-3 (hGal-3) (Homo sapiens (Human), UniProt P17931); assay: Gal-3 HTRF assay (His-tagged hGal-3 binding to B-ASF); conditions: HTRF, hGal-3 15 nM, B-ASF 15 nM; read-out: hGal-3 IC50;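 also: compounds preincubated 30 min with hGal-3, then 1 h with B-ASF, detection via terbium anti-His antibody and streptavidin d2. Control with B-ASF counts as full signal, omitting B-ASF as background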
Sequence (P17931 whole entry): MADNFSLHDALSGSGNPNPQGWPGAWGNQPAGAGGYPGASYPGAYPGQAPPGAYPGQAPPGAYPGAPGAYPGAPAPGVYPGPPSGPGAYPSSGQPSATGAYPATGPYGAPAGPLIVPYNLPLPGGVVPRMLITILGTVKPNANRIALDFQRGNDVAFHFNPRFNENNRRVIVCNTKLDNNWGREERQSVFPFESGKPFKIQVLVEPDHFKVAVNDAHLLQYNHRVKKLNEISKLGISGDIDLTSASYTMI

SMILES	IC50
OC[C@H]1O[C@@H](c2nncn2-c2ccc(N3CCNCC3)c(Cl)c2)[C@H](O)[C@@H](n2cc(-c3cc(F)c(F)c(F)c3)nn2)[C@H]1O [Example 141, (2S,3R,4R,5R,6R)-2-(4-(3-chloro-4-(piperazin-1-yl)phenyl)-4H-1,2,4-triazol-3-yl)-6-(hydroxymethyl)-4-(4-(3,4,5-trifluorophenyl)-1H-1,2,3-triazol-1-yl)tetrahydro-2H-pyran-3,5-diol]	0.13 µM
Cc1nc2cc(-n3cnnc3[C@@H]3O[C@H](CO)[C@H](O)[C@H](n4cc(-c5cc(F)c(F)c(F)c5)nn4)[C@H]3O)ccc2s1 [Example 143]	0.41 µM
COc1ccc(-n2cnnc2[C@@H]2O[C@H](CO)[C@H](O)[C@H](n3cc(-c4cc(F)c(F)c(F)c4)nn3)[C@H]2O)cc1Cl [Example 145]	0.23 µM
CSc1cccc(-n2cnnc2[C@@H]2O[C@H](CO)[C@H](O)[C@H](n3cc(-c4cc(F)c(F)c(F)c4)nn3)[C@H]2O)c1 [Example 146]	0.05 µM
CSc1cc(Cl)cc(-n2cnnc2[C@@H]2O[C@H](CO)[C@H](O)[C@H](n3cc(-c4cc(F)c(F)c(F)c4)nn3)[C@H]2O)c1 [Example 147]	0.06 µM
Cc1nc2c(Cl)cc(-n3cnnc3[C@@H]3O[C@H](CO)[C@H](O)[C@H](n4cc(-c5cc(F)c(F)c(F)c5)nn4)[C@H]3O)cc2s1 [Example 148]	0.08 µM
COc1cccc(-n2cnnc2[C@@H]2O[C@H](CO)[C@H](O)[C@H](n3cc(-c4cc(F)c(F)c(F)c4)nn3)[C@H]2O)c1 [Example 152]	0.16 µM
N#Cc1cccc(-n2cnnc2[C@@H]2O[C@H](CO)[C@H](O)[C@H](n3cc(-c4cc(F)c(F)c(F)c4)nn3)[C@H]2O)c1 [Example 153]	0.14 µM
OC[C@H]1O[C@@H](c2nncn2-c2cccc(F)c2)[C@H](O)[C@@H](n2cc(-c3cc(F)c(F)c(F)c3)nn2)[C@H]1O [Example 154]	0.08 µM
Cc1cccc(-n2cnnc2[C@@H]2O[C@H](CO)[C@H](O)[C@H](n3cc(-c4cc(F)c(F)c(F)c4)nn3)[C@H]2O)c1 [Example 155]	0.15 µM
OC[C@H]1O[C@@H](c2nncn2-c2ccc(F)c(Cl)c2)[C@H](O)[C@@H](n2cc(-c3cc(F)c(F)c(F)c3)nn2)[C@H]1O [Example 156]	0.05 µM
OC[C@H]1O[C@@H](c2nncn2Cc2nccs2)[C@H](O)[C@@H](n2cc(-c3cc(F)c(F)c(F)c3)nn2)[C@H]1O [Example 158]	2.15 µM
CC(=O)Nc1ccc(-n2cnnc2[C@@H]2O[C@H](CO)[C@H](O)[C@H](n3cc(-c4cc(F)c(F)c(F)c4)nn3)[C@H]2O)cc1O [Example 159]	0.84 µM
Cc1nc2ccc(-n3cnnc3[C@@H]3O[C@H](CO)[C@H](O)[C@H](n4cc(-c5cc(F)c(F)c(F)c5)nn4)[C@H]3O)cc2[nH]1 [Example 160]	0.33 µM
COC(=O)c1cc2ccc(-n3cnnc3[C@@H]3O[C@H](CO)[C@H](O)[C@H](n4cc(-c5cc(F)c(F)c(F)c5)nn4)[C@H]3O)cc2s1 [Example 163]	0.22 µM
OC[C@H]1O[C@@H](c2nncn2-c2ccc3cn[nH]c3c2)[C@H](O)[C@@H](n2cc(-c3cc(F)c(F)c(F)c3)nn2)[C@H]1O [Example 164]	0.63 µM
OC[C@H]1O[C@@H](c2nncn2-c2cccc3cc[nH]c23)[C@H](O)[C@@H](n2cc(-c3cc(F)c(F)c(F)c3)nn2)[C@H]1O [Example 165]	0.93 µM
Cn1ncc2ccc(-n3cnnc3[C@@H]3O[C@H](CO)[C@H](O)[C@H](n4cc(-c5cc(F)c(F)c(F)c5)nn4)[C@H]3O)cc21 [Example 166]	0.15 µM
Cn1cc2ccc(-n3cnnc3[C@@H]3O[C@H](CO)[C@H](O)[C@H](n4cc(-c5cc(F)c(F)c(F)c5)nn4)[C@H]3O)cc2n1 [Example 167]	0.3 µM
Cc1nc2cc(-n3cnnc3[C@@H]3O[C@H](CO)[C@H](O)[C@H](n4cc(-c5cc(F)c(F)c(F)c5)nn4)[C@H]3O)ccc2n1C [Example 168]	0.5 µM
Cc1nc2ccc(-n3cnnc3[C@@H]3O[C@H](CO)[C@H](O)[C@H](n4cc(-c5cc(F)c(F)c(F)c5)nn4)[C@H]3O)cc2n1C [Example 169]	0.28 µM
OCCn1cnnc1[C@@H]1O[C@H](CO)[C@H](O)[C@H](n2cc(-c3cc(F)c(F)c(F)c3)nn2)[C@H]1O [Example 170, (2S,3R,4R,5R,6R)-2-(4-(2-hydroxyethyl)-4H-1,2,4-triazol-3-yl)-6-(hydroxymethyl)-4-(4-(3,4,5-trifluorophenyl)-1H-1,2,3-triazol-1-yl)tetrahydro-2H-pyran-3,5-diol]	2 µM
OC[C@H]1O[C@@H](c2ncnn2[C@@H]2CCCC[C@H]2O)[C@H](O)[C@@H](n2cc(-c3cc(F)c(F)c(F)c3)nn2)[C@H]1O [Example 171]	2.02 µM
OC[C@H]1O[C@@H](c2ncnn2C2CCNCC2)[C@H](O)[C@@H](n2cc(-c3cc(F)c(F)c(F)c3)nn2)[C@H]1O [Example 172]	3.84 µM
OC[C@H]1O[C@@H](c2ncnn2-c2cccc(Cl)c2)C[C@@H](n2cc(-c3cc(F)c(F)c(F)c3)nn2)[C@H]1O [Example 173, (2R,3R,4R,6R)-6-(1-(3-chlorophenyl)-1H-1,2,4-triazol-5-yl)-2-(hydroxymethyl)-4-(4-(3,4,5-trifluorophenyl)-1H-1,2,3-triazol-1-yl)tetrahydro-2H-pyran-3-ol]	0.18 µM

SMILES	IC50
OC[C@H]1O[C@@H](c2ncnn2-c2ccc(Cl)c(Cl)c2)C[C@@H](n2cc(-c3cc(F)c(F)c(F)c3)nn2)[C@H]1O [Example 174]	0.3 µM
NC(=O)c1cccc(-n2ncnc2[C@H]2C[C@@H](n3cc(-c4cc(F)c(F)c(F)c4)nn3)[C@@H](O)[C@@H](CO)O2)c1 [Example 175]	0.65 µM
Cc1nc2ccc(-n3ncnc3[C@H]3C[C@@H](n4cc(-c5cc(F)c(F)c(F)c5)nn4)[C@@H](O)[C@@H](CO)O3)cc2s1 [Example 176]	0.04 µM
OC[C@H]1O[C@@H](c2ncnn2-c2cc(Cl)ccc2Cl)C[C@@H](n2cc(-c3cc(F)c(F)c(F)c3)nn2)[C@H]1O [Example 177]	0.13 µM
Cc1ccc(Cl)cc1-n1ncnc1[C@H]1C[C@@H](n2cc(-c3cc(F)c(F)c(F)c3)nn2)[C@@H](O)[C@@H](CO)O1 [Example 178]	0.25 µM
OC[C@H]1O[C@@H](c2ncnn2-c2cc(Cl)ccc2F)C[C@@H](n2cc(-c3cc(F)c(F)c(F)c3)nn2)[C@H]1O [Example 179]	0.25 µM
COc1ccc(Cl)cc1-n1ncnc1[C@H]1C[C@@H](n2cc(-c3cc(F)c(F)c(F)c3)nn2)[C@@H](O)[C@@H](CO)O1 [Example 180]	0.21 µM
OC[C@H]1O[C@@H](c2ncnn2-c2ccc3ncsc3c2)C[C@@H](n2cc(-c3cc(F)c(F)c(F)c3)nn2)[C@H]1O [Example 181]	0.04 µM
Cc1nc2cc(Cl)c(-n3ncnc3[C@H]3C[C@@H](n4cc(-c5cc(F)c(F)c(F)c5)nn4)[C@@H](O)[C@@H](CO)O3)cc2s1 [Example 182]	0.12 µM
COc1ccc(Cl)cc1-n1nc(C)nc1[C@H]1C[C@@H](n2cc(-c3cc(F)c(F)c(F)c3)nn2)[C@@H](O)[C@@H](CO)O1 [Example 183, (2R,3R,4R,6R)-6-(1-(5-chloro-2-methoxyphenyl)-3-methyl-1H-1,2,4-triazol-5-yl)-2-(hydroxymethyl)-4-(4-(3,4,5-trifluorophenyl)-1H-1,2,3-triazol-1-yl)tetrahydro-2H-pyran-3-ol]	0.16 µM
Cc1nc([C@H]2C[C@@H](n3cc(-c4cc(F)c(F)c(F)c4)nn3)[C@@H](O)[C@@H](CO)O2)n(-c2cc(Cl)ccc2C)n1 [Example 184]	0.09 µM
Cc1nc([C@H]2C[C@@H](n3cc(-c4cc(F)c(F)c(F)c4)nn3)[C@@H](O)[C@@H](CO)O2)n(-c2cc(Cl)ccc2F)n1 [Example 185]	0.17 µM
Cc1nc([C@H]2C[C@@H](n3cc(-c4cc(F)c(F)c(F)c4)nn3)[C@@H](O)[C@@H](CO)O2)n(-c2ccc3ncsc3c2)n1 [Example 186]	0.05 µM
Cc1nc([C@H]2C[C@@H](n3cc(-c4cc(F)c(F)c(F)c4)nn3)[C@@H](O)[C@@H](CO)O2)n(-c2ccc3nc(C)sc3c2)n1 [Example 187]	0.11 µM
CO[C@@H]1[C@@H](n2cc(-c3cc(F)c(F)c(F)c3)nn2)[C@@H](O)[C@@H](CO)O[C@H]1c1ncnn1-c1cccc(Cl)c1 [Example 189]	0.09 µM
CO[C@@H]1[C@@H](n2cc(-c3cc(F)c(F)c(F)c3)nn2)[C@@H](O)[C@@H](CO)O[C@H]1c1ncnn1-c1ccc(Cl)c(Cl)c1 [Example 190]	0.18 µM
CO[C@@H]1[C@@H](n2cc(-c3cc(F)c(F)c(F)c3)nn2)[C@@H](O)[C@@H](CO)O[C@H]1c1ncnn1-c1ccc2nc(C)sc2c1 [Example 191]	0.06 µM
CO[C@@H]1[C@@H](n2cc(-c3cc(F)c(F)c(F)c3)nn2)[C@@H](O)[C@@H](CO)O[C@H]1c1ncnn1-c1ccc2ncsc2c1 [Example 192]	0.04 µM
Cc1nc2ccc(-n3ncnc3[C@@H]3O[C@H](CO)[C@H](O)[C@H](n4cc(C(=O)NC5CC5)nn4)[C@H]3O)cc2s1 [Example 193, N-cyclopropyl-1-((2R,3R,4R,5R,6S)-3,5-dihydroxy-2-(hydroxymethyl)-6-(1-(2-methylbenzo[d]thiazol-6-yl)-1H-1,2,4-triazol-5-yl)tetrahydro-2H-pyran-4-yl)-1H-1,2,3-triazole-4-carboxamide]	0.18 µM
Cc1nc2ccc(-n3ncnc3[C@@H]3O[C@H](CO)[C@H](O)[C@H](n4cc(C(N)=O)nn4)[C@H]3O)cc2s1 [Example 194]	4.09 µM
CNC(=O)c1cn([C@H]2[C@@H](O)[C@@H](CO)O[C@@H](c3ncnn3-c3ccc4nc(C)sc4c3)[C@@H]2O)nn1 [Example 195]	1.16 µM
Cc1nc2ccc(-n3ncnc3[C@@H]3O[C@H](CO)[C@H](O)[C@H](n4cc(C(=O)N(C)C)nn4)[C@H]3O)cc2s1 [Example 196]	5.65 µM
Cc1nc2ccc(-n3ncnc3[C@@H]3O[C@H](CO)[C@H](O)[C@H](n4cc(C(=O)NC5CCCC5)nn4)[C@H]3O)cc2s1 [Example 197]	1.32 µM
Cc1nc2ccc(-n3ncnc3[C@@H]3O[C@H](CO)[C@H](O)[C@H](n4cc(C(=O)NC5CCCCC5)nn4)[C@H]3O)cc2s1 [Example 198]	1.02 µM
Cc1nc2ccc(-n3ncnc3[C@@H]3O[C@H](CO)[C@H](O)[C@H](n4cc(C(=O)NC5CCC5)nn4)[C@H]3O)cc2s1 [Example 199]	0.36 µM
